This is an account of results in patent US20260335300A1, “Synthetic Nicotine Analogue Formulation For Nicotine Replacement and Amplication” (priority 2023, published 2026).

One may read the LD50 as the dose expected to kill half of the subjects tested. Low readings indicate a more toxic substance, high ones a less toxic substance.

For series [1] the following is noted: background statement, cited from earlier work; for satisfaction and 'throat-hit' sensation: novel tobacco products; for satisfaction in oral and nasal products: novel oral and nasal nicotine products.
The next series in a line: in vivo. The following applies: rat, po.
Series [2] has as its system rats. To be noted: acute oral.
The nature of series [3]: Solubility in appropriate solvents. It counts as physicochemical. The following applies: in the appropriate solvents.
Series [4] in a line: Chemical stability in air / exposure to atmosphere for 24 hours, discoloration, blending. Type of series: physicochemical.
For series [5], the system named is mice. The following applies: mouse, in vivo.
In series [6] the test system is mice. The following applies: comparison value; cited from earlier work.
Series [7] concerns rats. The following applies: comparison value; cited from earlier work.

For the compound `CN1CCCC1c1cccnc1` (racemic) [racemic nicotine], the “satisfaction and 'throat-hit' sensation” value in [1] is “does not induce the distinctive satisfaction and ‘throat-hit’ sensation”.

In the case of `Cc1ccc([C@H]2CCCN2C)cn1` [(R)-6-Methylnicotine, reference compound], the “efficacy as nicotine analogue and flavor” value (enantiomer, no test described) was “not effective as a nicotine analogue, and contributes to unpleasant flavors”.

Compound `Cc1ccc([C@@H]2CCCN2C)cn1.O=C(O)c1ccccc1` [(S)-6-Methylnicotine benzoate] came in with a median lethal dose (LD50) in the series “in vivo” of 120 to 215 mg/kg. Also, the “reduction in toxicity versus nicotine on an equivalent effective use basis” value in the series on rats [2] (equivalent effective use basis) is reported as 2 order of magnitude. Further, the “toxicity relative to nicotine” value in the series on rats [2] (versus nicotine) is “half to one quarter as toxic”.

For `Cc1ccc([C@@H]2CCCN2C)cn1` [(S)-6-Methylnicotine, (S)-2-methyl-5-(1-methylpyrrolidin-2-yl)pyridine], the solubility result in series [3] is given as “acceptable for all of the aforementioned applications”. Besides, the “chemical stability compared to nicotine” value in [4] (degradation and discoloration) is “more chemically stable than nicotine, and resists degradation and discoloration”. Moreover, the “lifetime in the air relative to nicotine” value in series [4] (in the air, versus nicotine, may potentially) is not above 5 times. The “stability when blended with other compounds” value in series [4] (versus nicotine, blended with other compounds) is recorded as “more stable than nicotine when blended with other compounds”. Moreover, in [4] (versus nicotine, may), the “resistance to higher temperatures” value is on record as “may be able to resist higher temperatures”. The “reduction of oral toxicity versus nicotine” value in the series with mice [5] is reported as ~3 order of magnitude. The “toxicity compared to nicotine, in words” value in the series with mice [5] (po) was “both less toxic, and can be used in lower amounts than nicotine”. Moreover, the “relief from cravings / subjective hit sensation” value (in words) is “induces a subjective “hit” sensation which satisfies cravings”. Moreover, the “onset of action compared to nicotine” value (preliminary, versus nicotine) is “may be faster acting”.

For the compound `COC(=O)C1=CCCN(C)C1` [arecoline], in [1], the “satisfaction in oral and nasal products” value is given as “limited satisfaction due to a lack of satisfactory sensations”; the “satisfaction and 'throat-hit' sensation” value is “lack of satisfaction and ‘throat-hit’ sensation”.

As for `O=c1cccc2n1C[C@@H]1CNC[C@H]2C1` [cytisine], in [1], the “satisfaction in oral and nasal products” value was “limited satisfaction due to a lack of satisfactory sensations”; the “satisfaction and 'throat-hit' sensation” value is “lack of satisfaction and ‘throat-hit’ sensation”.

Regarding `CN1CCCC1c1cccnc1` (stereo not drawn) [nicotine], the results for the “acute oral LD50 of nicotine” value with mice [6] and with rats [7] were “about 3.3 mg/kg BW” and 50 mg/kg, respectively. Moreover, the “yellowing on exposure to atmosphere” value in [4] (exposed to atmosphere for 24 hours) is on record as “yellowing was observed sooner than (S)-6-Methylnicotine”.
